Reference: paper PMC9663428, “The protein conformational basis of isoflavone biosynthesis” (Communications Biology, 2022)

Target: T1, 2-HID (Pueraria montana, UniProt E9M5G1)
T1 construct: His-tagged (Ni-NTA) from pDEST17, expressed in E. coli BL21(DE3); first eight residues not observed; one molecule per asymmetric unit
T1 sequence (E9M5G1 1-325): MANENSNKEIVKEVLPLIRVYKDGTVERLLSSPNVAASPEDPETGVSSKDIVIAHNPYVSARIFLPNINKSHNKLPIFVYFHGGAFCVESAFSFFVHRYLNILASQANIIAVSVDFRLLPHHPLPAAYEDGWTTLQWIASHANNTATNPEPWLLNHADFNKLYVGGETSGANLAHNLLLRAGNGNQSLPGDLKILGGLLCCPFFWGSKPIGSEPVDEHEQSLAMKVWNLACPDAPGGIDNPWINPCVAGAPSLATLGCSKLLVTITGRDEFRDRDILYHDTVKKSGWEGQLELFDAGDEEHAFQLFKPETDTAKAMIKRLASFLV
Experiment: X-ray crystal structure, co-crystallization, […] Å
Assay type: binding
Details: carboxylesterase product; active site, hydrogen bond to Thr168; complex is 8EA1 or 8EA2, paper does not say which

O=[N+]([O-])c1ccc(O)cc1 [p-nitrophenol]
X-ray crystal structure, co-crystallization, 2.3 Å: only a structure of 2-HID complexed with p-nitrophenol, a product of the carboxylesterase reaction
